# Source: patent US11839610B2 (priority 2022, dated 2023)
# Like-named read-outs stand apart in the source and are kept apart here.
# Test system: D614G S protein pseudovirus (nCoV-S-Luc-D614G) in ACE2-293T cells
# Format: cell-based, SARS-CoV-2
structure (smiles),measurement,setting,value
COc1cc2c3cc1Oc1c4c(cc5c1[C@H](Cc1ccc(cc1)Oc1cc(ccc1O)C[C@H]3N(C)CC2)N(C)CC5)OCO4 [Cepharanoline],"Levels of viral infection, D614G, Ave.",Conc. 0.1 μM,72.97%
same,"Levels of viral infection, D614G, Ave.",Conc. 1 μM,39.14%
same,"Levels of viral infection, D614G, Ave.",Conc. 10 μM,−20.02%
same,IC50,"read-out: 50% inhibitory concentrations (IC50) for viral infection, D614G",480 ± 90 nM
